Measured values as given in ChEMBL document CHEMBL3885881, “DrugMatrix”.

Species: Rattus norvegicus
Assay: DrugMatrix - Regimen: Daily Repeat
Type: toxicity, organism-based, Sprague-Dawley
Design: regimen Daily Repeat, gender Male, age 6-8 weeks
Conditions: in vivo, po, route oral GAVAGE, vehicle 100 % WATER; for ABSOLUTE BASOPHIL / ABSOLUTE EOSINOPHIL / ABSOLUTE LYMPHOCYTE / ABSOLUTE MONOCYTE / ABSOLUTE SEGMENTED NEUTROPHIL / BASOPHIL / EOSINOPHIL / ERYTHROCYTE COUNT / HEMATOCRIT / HEMOGLOBIN / LEUKOCYTE COUNT / LYMPHOCYTE / MEAN CORPUSCULAR HEMOGLOBIN / MEAN CORPUSCULAR HEMOGLOBIN CONCENTRATION / MEAN CORPUSCULAR VOLUME / MONOCYTE / NEUTROPHIL / NUCLEATED RED BLOOD CELLS / PLATELET COUNT: tissue Blood; for ALANINE AMINOTRANSFERASE / ALBUMIN / ALKALINE PHOSPHATASE / ASPARTATE AMINOTRANSFERASE / BLOOD UREA NITROGEN / CARBON DIOXIDE / CHLORIDE / CHOLESTEROL / CREATINE PHOSPHOKINASE / CREATININE / GLUCOSE / LACTATE DEHYDROGENASE / LIPASE / PHOSPHORUS / POTASSIUM / SODIUM / TOTAL BILIRUBIN / TOTAL PROTEIN / URIC ACID: tissue Plasma
[1] = 31 mg/kg, 120 h, dose level Low, time 5 day
[2] = 2629 mg/kg, 72 h, dose level High, time 3 day
[3] = 2629 mg/kg, 120 h, dose level High, time 5 day

Compound: Nc1ccc(S(=O)(=O)Nc2nccs2)cc1 [SULFATHIAZOLE]
- ABSOLUTE BASOPHIL [1]: 0 CELLS/uL
- ABSOLUTE EOSINOPHIL [1]: 44 CELLS/uL
- ABSOLUTE LYMPHOCYTE [1]: 11208.67 CELLS/uL
- ABSOLUTE MONOCYTE [1]: 0 CELLS/uL
- ABSOLUTE SEGMENTED NEUTROPHIL [1]: 914 CELLS/uL
- BASOPHIL [1]: 0%
- EOSINOPHIL [1]: 0.33%
- ERYTHROCYTE COUNT [1]: 5.37 x10E6/uL
- HEMATOCRIT [1]: 32.6%
- HEMOGLOBIN [1]: 12.8 G/DL
- LEUKOCYTE COUNT [1]: 12.17 x10E3/uL
- LYMPHOCYTE [1]: 92%
- MEAN CORPUSCULAR HEMOGLOBIN [1]: 23.87 pg
- MEAN CORPUSCULAR HEMOGLOBIN CONCENTRATION [1]: 39.27 G/DL
- MEAN CORPUSCULAR VOLUME [1]: 60.87 fL
- MONOCYTE [1]: 0%
- NEUTROPHIL [1]: 7.67%
- NUCLEATED RED BLOOD CELLS [1]: 0 /100WBC
- PLATELET COUNT [1]: 967.33 x10E3/uL
- ALANINE AMINOTRANSFERASE [1]: 55 u/L
- ALBUMIN [1]: 3.97 G/DL
- ALKALINE PHOSPHATASE [1]: 332.33 u/L
- ASPARTATE AMINOTRANSFERASE [1]: 80.33 u/L
- BLOOD UREA NITROGEN [1]: 15.33 mg/dL
- CARBON DIOXIDE [1]: 26.67 mmol/L
- CHLORIDE [1]: 101.67 MEQ/L
- CHOLESTEROL [1]: 68.33 mg/dL
- CREATINE PHOSPHOKINASE [1]: 466 u/L
- CREATININE [1]: 0.16 mg/dL
- GLUCOSE [1]: 230.67 mg/dL
- LACTATE DEHYDROGENASE [1]: 161.67 u/L
- LIPASE [1]: 8.33 u/L
- PHOSPHORUS [1]: 12.43 mg/dL
- POTASSIUM [1]: 5.22 MEQ/L
- SODIUM [1]: 142.17 MEQ/L
- TOTAL BILIRUBIN [1]: 0.13 mg/dL
- TOTAL PROTEIN [1]: 5.83 G/DL
- URIC ACID [1]: 1.13 mg/dL
- ABSOLUTE BASOPHIL [2]: 0 CELLS/uL
- ABSOLUTE EOSINOPHIL [2]: 0 CELLS/uL
- ABSOLUTE LYMPHOCYTE [2]: 13130 CELLS/uL
- ABSOLUTE MONOCYTE [2]: 74.67 CELLS/uL
- ABSOLUTE SEGMENTED NEUTROPHIL [2]: 1895.33 CELLS/uL
- BASOPHIL [2]: 0%
- EOSINOPHIL [2]: 0%
- ERYTHROCYTE COUNT [2]: 6.25 x10E6/uL
- HEMATOCRIT [2]: 39.77%
- HEMOGLOBIN [2]: 15.4 G/DL
- LEUKOCYTE COUNT [2]: 15.1 x10E3/uL
- LYMPHOCYTE [2]: 87%
- MEAN CORPUSCULAR HEMOGLOBIN [2]: 24.67 pg
- MEAN CORPUSCULAR HEMOGLOBIN CONCENTRATION [2]: 38.77 G/DL
- MEAN CORPUSCULAR VOLUME [2]: 63.6 fL
- MONOCYTE [2]: 0.67%
- NEUTROPHIL [2]: 12.33%
- NUCLEATED RED BLOOD CELLS [2]: 0.33 /100WBC
- PLATELET COUNT [2]: 1369.33 x10E3/uL
- ALANINE AMINOTRANSFERASE [2]: 62 u/L
- ALBUMIN [2]: 3.93 G/DL
- ALKALINE PHOSPHATASE [2]: 291 u/L
- ASPARTATE AMINOTRANSFERASE [2]: 83 u/L
- BLOOD UREA NITROGEN [2]: 13.33 mg/dL
- CARBON DIOXIDE [2]: 23.67 mmol/L
- CHLORIDE [2]: 105.33 MEQ/L
- CHOLESTEROL [2]: 68.67 mg/dL
- CREATINE PHOSPHOKINASE [2]: 777 u/L
- CREATININE [2]: 0.18 mg/dL
- GLUCOSE [2]: 146.67 mg/dL
- LACTATE DEHYDROGENASE [2]: 269.33 u/L
- LIPASE [2]: 9.33 u/L
- PHOSPHORUS [2]: 12.5 mg/dL
- POTASSIUM [2]: 5.42 MEQ/L
- SODIUM [2]: 148.07 MEQ/L
- TOTAL BILIRUBIN [2]: 0.1 mg/dL
- TOTAL PROTEIN [2]: 5.7 G/DL
- URIC ACID [2]: 2.33 mg/dL
- ABSOLUTE BASOPHIL [3]: 0 CELLS/uL
- ABSOLUTE EOSINOPHIL [3]: 30.33 CELLS/uL
- ABSOLUTE LYMPHOCYTE [3]: 11698 CELLS/uL
- ABSOLUTE MONOCYTE [3]: 241.67 CELLS/uL
- ABSOLUTE SEGMENTED NEUTROPHIL [3]: 1363.33 CELLS/uL
- BASOPHIL [3]: 0%
- EOSINOPHIL [3]: 0.33%
- ERYTHROCYTE COUNT [3]: 6.23 x10E6/uL
- HEMATOCRIT [3]: 38.77%
- HEMOGLOBIN [3]: 14.67 G/DL
- LEUKOCYTE COUNT [3]: 13.33 x10E3/uL
- LYMPHOCYTE [3]: 87%
- MEAN CORPUSCULAR HEMOGLOBIN [3]: 23.53 pg
- MEAN CORPUSCULAR HEMOGLOBIN CONCENTRATION [3]: 37.83 G/DL
- MEAN CORPUSCULAR VOLUME [3]: 62.27 fL
- MONOCYTE [3]: 2%
- NEUTROPHIL [3]: 10.67%
- NUCLEATED RED BLOOD CELLS [3]: 0.33 /100WBC
- PLATELET COUNT [3]: 1447 x10E3/uL
- ALANINE AMINOTRANSFERASE [3]: 59.33 u/L
- ALBUMIN [3]: 4.2 G/DL
- ALKALINE PHOSPHATASE [3]: 266.67 u/L
- ASPARTATE AMINOTRANSFERASE [3]: 58 u/L
- BLOOD UREA NITROGEN [3]: 14.33 mg/dL
- CARBON DIOXIDE [3]: 21.33 mmol/L
- CHLORIDE [3]: 105 MEQ/L
- CHOLESTEROL [3]: 64.33 mg/dL
- CREATINE PHOSPHOKINASE [3]: 224.67 u/L
- CREATININE [3]: 0.24 mg/dL
- GLUCOSE [3]: 148.67 mg/dL
- LACTATE DEHYDROGENASE [3]: 185.33 u/L
- LIPASE [3]: 11.33 u/L
- PHOSPHORUS [3]: 9.7 mg/dL
- POTASSIUM [3]: 5.17 MEQ/L
- SODIUM [3]: 145.03 MEQ/L
- TOTAL BILIRUBIN [3]: 0.1 mg/dL
- TOTAL PROTEIN [3]: 6 G/DL
- URIC ACID [3]: 1.37 mg/dL
